Each block holds one molecule with its values, some of them ahead of it.
Assays:
[1] = Crystal suspensions of microcrystalline paclitaxel in different solvent mixtures; format: physicochemical; design: key: +++: good; +/−: average; −−−: poor; conditions: with trioctanoylglycerol
Procedure: To prepare the solutions, 770 mg of trioctanoylglycerol was dissolved in the polar solvent. Then the nonpolar solvent was added. It was then homogenized and filtered.
To test whether crystal suspension could be prepared, 10 mL of each of the solutions was carefully added to 200 mg of paclitaxelin the form of microcrystals at room temperature. After combining, it was tested whether stable crystal suspensions were obtained.

[2] = Preparation and stability of crystal suspensions of microcrystalline paclitaxel with solutions of different tri-O-acylglycerols; conditions: for microcrystals intact in SEM images: SEM 200× and 1000×; for microcrystals of paclitaxel dissolve directly in the solution: directly after combining, room temperature; for paclitaxel microcrystals on temperature increase: temperature increased (50° C.)
Excerpt: In the first step, solutions of tri-O-acylglycerols were first prepared in a solvent mixture. Subsequently, the solutions were combined with microcrystals of paclitaxel to investigate which tri-O-acylglycerols could be used to obtain stable crystal suspensions. […] For the preparation of the solutions, an ethyl acetate/heptane solvent mixture was used here as an example.
To prepare the solutions, the respective tri-O-acylglycerol was first dissolved in a polar organic solvent and then a non-polar solvent was added.
To prepare the solutions, 770 mg of the respective tri-O-acylglycerol were dissolved in 14 g ethyl acetate (15.6 mL). Then, 57.4 g of n-heptane (84.4 mL) was added.
Subsequently, homogenization and filtration were performed. The total volume of the solvent mixture is 100 mL.
To a precisely weighed amount of dry microcrystals of the previously prepared paclitaxel, a defined amount of the solutions containing tri-O-acylglycerol and optionally antioxidant is carefully added.
To check whether crystal suspension can be prepared, to each 200 mg of paclitaxel in the form of microcrystals were carefully added 10 mL of one of the solutions 1a) to 1j) at room temperature. Six mixtures of 10 mL of solution for each solution were prepared. After combining, it was tested whether the microcrystals of paclitaxel dissolved directly in the solutions.
To evaluate the crystal size, particle size distribution (i.e., crystal size distribution), and shape of the crystals, a sample was taken with a Pasteur pipette in each case and a drop was placed on the slide of the SEM sample plate. SEM images were taken at 200× and 1000× magnification for evaluation.
To evaluate the crystal size, particle size distribution (i.e., crystal size distribution), and shape of the crystals, one sample was taken from each using a Pasteur pipette and one drop was placed on the foil of the SEM sample plate. An additional sample was taken from the sediment and one drop was placed on the slide of the SEM sample plate. SEM images were taken at 200× and 1000× magnification for evaluation. SEM images were taken at 200 and 1000× magnification for evaluation.
To prepare the solutions, 770 mg of the respective tri-O-acylglycerol were dissolved in 14 g ethyl acetate (15.6 mL). Then, 57.4 g of n-heptane (84.4 mL) was added. Subsequently, homogenization and filtration were performed. The total volume of the solvent mixture is 100 mL.
Three mixtures of 10 mL of solution for each solution were prepared. After combining, it was tested whether the microcrystals dissolved directly in these solutions.

[3] = cited from earlier work
[4] = Uniformity of coating and recovery rate of active agent on coated balloon catheters
Excerpt: Balloon catheters 4×40 mm were coated with a 2% PTX suspension containing trioctanoylglycerol (20 wt % based on PTX) using a droplet dosing technique in a microdosing method such as the pipetting method, or droplet dragging method. […] The studies on the recovery rate of active agent on balloon catheters divided into equally sized segments confirm the uniformity of the coating and thus the success in using a crystal suspension as well as a 100% recovery rate
Balloon catheters 4×40 mm were each coated with a 2% PTX suspension containing tridodecanoylglycerol or tritetradecanoylglycerol (20 wt % based on PTX) using a drop dosing technique in a micro dosing method such as the pipetting method or drop dragging method.
For this purpose, the coated weighed balloon is fixed and inflated. The balloon is then cut with a scalpel into pieces of as equal size as possible, e.g. a 40 mm long balloon into 4 pieces, a 120 mm long balloon can be divided into 6 pieces. First, cut the balloon in half lengthwise and measure the layer thickness with a micrometer. Then the balloon is divided and the pieces are weighed and also the layer thicknesses are measured with the micrometer.
The coatings are each dissolved in a defined amount of acetone and the amount of active agent is determined via HPLC. The results are compared with each other, taking into account the balloon section areas.

[5] = Crystal suspensions of microcrystalline paclitaxel with different proportions of tri-O-acylglycerol; format: physicochemical; conditions: tri-O-acylglycerol:paclitaxel 20:80, after 100 h
Procedure: For this purpose, further investigation was carried out using solutions of trioctanoylglycerol or tridecanoylglycerol with different proportions of tri-O-acylglycerol to find out the optimum mass ratio of tri-O-acylglycerol to microcrystalline paclitaxel. To prepare the solutions, the appropriate amount of each tri-O-acylglycerol was dissolved in 14 g ethyl acetate (15.6 mL). […] Subsequently, homogenization and filtration were performed.

[6] = 100 h and temperature elevation to 50° C.
[7] = after 24-48 hours and temperature elevation to 50° C.

Crystal suspension ([1]; Acetone/Cyclohexane 10:90 (v/v polar/non-polar)): +++
Crystal suspension ([1]; Acetone/Cyclohexane 50:50 (v/v polar/non-polar)): −−−
Crystal suspension ([1]; Acetone/Cyclohexane 60:40 (v/v polar/non-polar)): −−−
Crystal suspension ([1]; Acetone/Heptane 10:90 (v/v polar/non-polar)): +++
Crystal suspension ([1]; Acetone/Heptane 60:40 (v/v polar/non-polar)): −−−
Crystal suspension ([1]; Acetone/Hexane 10:90 (v/v polar/non-polar)): +++
Crystal suspension ([1]; Acetone/Hexane 50:50 (v/v polar/non-polar)): −−−
Crystal suspension ([1]; Acetone/Hexane 60:40 (v/v polar/non-polar)): −−−
Crystal suspension ([1]; Ethanol/Cyclohexane 10:90 (v/v polar/non-polar)): +++
Crystal suspension ([1]; Ethanol/Cyclohexane 60:40 (v/v polar/non-polar)): −−−
Crystal suspension ([1]; Ethanol/Heptane 10:90 (v/v polar/non-polar)): +++
Crystal suspension ([1]; Ethanol/Heptane 60:40 (v/v polar/non-polar)): −−−
Crystal suspension ([1]; Ethanol/Hexane 10:90 (v/v polar/non-polar)): +++
Crystal suspension ([1]; Ethanol/Hexane 60:40 (v/v polar/non-polar)): −−−
Crystal suspension ([1]; Ethyl acetate/Cyclohexane 10:90 (v/v polar/non-polar)): +++
Crystal suspension ([1]; Ethyl acetate/Cyclohexane 30:70 (v/v polar/non-polar)): +++
Crystal suspension ([1]; Ethyl acetate/Cyclohexane 40:60 (v/v polar/non-polar)): +++
Crystal suspension ([1]; Ethyl acetate/Cyclohexane 60:40 (v/v polar/non-polar)): +/−
Crystal suspension ([1]; Ethyl acetate/Heptane 10:90 (v/v polar/non-polar)): +++
Crystal suspension ([1]; Ethyl acetate/Heptane 30:70 (v/v polar/non-polar)): +++
Crystal suspension ([1]; Ethyl acetate/Heptane 40:60 (v/v polar/non-polar)): +++
Crystal suspension ([1]; Ethyl acetate/Heptane 60:40 (v/v polar/non-polar)): +/−
Crystal suspension ([1]; Ethyl acetate/Hexane 10:90 (v/v polar/non-polar)): +++
Crystal suspension ([1]; Ethyl acetate/Hexane 30:70 (v/v polar/non-polar)): +++
Crystal suspension ([1]; Ethyl acetate/Hexane 40:60 (v/v polar/non-polar)): +++
Crystal suspension ([1]; Ethyl acetate/Hexane 60:40 (v/v polar/non-polar)): +/−
Crystal suspension ([1]; iso-propanol/Cyclohexane 10:90 (v/v polar/non-polar)): +++
Crystal suspension ([1]; iso-propanol/Cyclohexane 50:50 (v/v polar/non-polar)): −−−
Crystal suspension ([1]; iso-propanol/Cyclohexane 60:40 (v/v polar/non-polar)): −−−
Crystal suspension ([1]; iso-propanol/Heptane 10:90 (v/v polar/non-polar)): +++
Crystal suspension ([1]; iso-propanol/Heptane 50:50 (v/v polar/non-polar)): −−−
Crystal suspension ([1]; iso-propanol/Heptane 60:40 (v/v polar/non-polar)): −−−
Crystal suspension ([1]; iso-propanol/Hexane 10:90 (v/v polar/non-polar)): +++
Crystal suspension ([1]; iso-propanol/Hexane 50:50 (v/v polar/non-polar)): −−−
Crystal suspension ([1]; iso-propanol/Hexane 60:40 (v/v polar/non-polar)): −−−
Compound: CC(=O)O[C@H]1C(=O)[C@@]2(C)[C@H]([C@H](OC(=O)c3ccccc3)[C@]3(O)C[C@H](OC(=O)[C@H](O)[C@@H](NC(=O)c4ccccc4)c4ccccc4)C(C)=C1C3(C)C)[C@]1(OC(C)=O)CO[C@@H]1C[C@@H]2O [paclitaxel, (2α,4α,5β,7β,10β,13α)-4,10-Bis(acetyloxy)-13-{[(2R,3S)-3-(benzoylamino)-2-hydroxy-3-phenylpropanoyl]oxy}-1,7-dihydroxy-9-oxo-5,20-epoxytax-11-en-2-yl-benzoat]

stability of crystal suspension [2, 6]: remained stable
stability and flexibility of coating [4]: particularly stable and flexible coating
stability of crystal suspension at ratio 20:80 [5]: excellent stable
Compound: CCCCCCCCCC(=O)OCC(COC(=O)CCCCCCCCC)OC(=O)CCCCCCCCC [tridecanoylglycerol]
solubility in water [3]: practically insoluble

sedimentation of the microcrystals [2]: sedimentation of the crystals occurred
state of paclitaxel microcrystals in the suspension after 100 h [2]: did not dissolve completely
microcrystals intact in SEM images [2]: did not remain intact
microcrystals of paclitaxel dissolve directly in the solution [2]: did not dissolve directly
Compound: CCCCCCCCCCCC(=O)OCC(COC(=O)CCCCCCCCCCC)OC(=O)CCCCCCCCCCC [tridodecanoylglycerol]

state of paclitaxel microcrystals in the suspension after 100 h [2]: partially dissolved
microcrystals intact in SEM images [2]: did not remain intact
microcrystals of paclitaxel dissolve directly in the solution [2]: did not dissolve directly
paclitaxel microcrystals on temperature increase [2]: dissolved
Compound: CCCCCCC(=O)OCC(COC(=O)CCCCCC)OC(=O)CCCCCC [triheptanoylglycerol]

state of paclitaxel microcrystals in the suspension after 100 h [2]: not as uniformly present
microcrystals of paclitaxel dissolve directly in the solution [2]: did not dissolve directly
paclitaxel microcrystals on temperature increase [2]: dissolved rapidly
Compound: CCCCCC(=O)OCC(COC(=O)CCCCC)OC(=O)CCCCC [trihexanoylglycerol]

stability of crystal suspension [2, 7]: remained stable
Compound: CCCCCCCCC(=O)OCC(COC(=O)CCCCCCCC)OC(=O)CCCCCCCC [trinonanoylglycerol]
solubility in water [3]: practically insoluble

stability of crystal suspension [2, 6]: remained stable
stability and flexibility of coating [4]: particularly stable and flexible coating
stability of crystal suspension at ratio 20:80 [5]: excellent stable
Compound: CCCCCCCC(=O)OCC(COC(=O)CCCCCCC)OC(=O)CCCCCCC [trioctanoylglycerol]
solubility in water [3]: practically insoluble

sedimentation of the microcrystals [2]: sedimentation of the crystals occurred
state of paclitaxel microcrystals in the suspension after 100 h [2]: did not dissolve completely
microcrystals intact in SEM images [2]: did not remain intact
microcrystals of paclitaxel dissolve directly in the solution [2]: did not dissolve directly
Compound: CCCCCCCCCCCCCC(=O)OCC(COC(=O)CCCCCCCCCCCCC)OC(=O)CCCCCCCCCCCCC [tritetradecanoylglycerol]

sedimentation of the microcrystals [2]: no sedimentation
microcrystals intact in SEM images [2]: remained intact
stability of crystal suspension [2, 7]: remained stable
Compound: CCCCCCCCCCC(=O)OCC(COC(=O)CCCCCCCCCC)OC(=O)CCCCCCCCCC [triundecanoylglycerol, 1,3-bis(undecanoyloxy)propan-2-yl-undecanoate]
solubility in water [3]: practically insoluble
